According to patent US8440660B2 (Santen Pharmaceutical Co., Ltd., priority 2006, dated 2013):

Target: T1, Glucocorticoid Receptor (GR) (Homo sapiens, UniProt P04150)
T1 construct: purchased Invitrogen P2816
T1 sequence (P04150 1-777): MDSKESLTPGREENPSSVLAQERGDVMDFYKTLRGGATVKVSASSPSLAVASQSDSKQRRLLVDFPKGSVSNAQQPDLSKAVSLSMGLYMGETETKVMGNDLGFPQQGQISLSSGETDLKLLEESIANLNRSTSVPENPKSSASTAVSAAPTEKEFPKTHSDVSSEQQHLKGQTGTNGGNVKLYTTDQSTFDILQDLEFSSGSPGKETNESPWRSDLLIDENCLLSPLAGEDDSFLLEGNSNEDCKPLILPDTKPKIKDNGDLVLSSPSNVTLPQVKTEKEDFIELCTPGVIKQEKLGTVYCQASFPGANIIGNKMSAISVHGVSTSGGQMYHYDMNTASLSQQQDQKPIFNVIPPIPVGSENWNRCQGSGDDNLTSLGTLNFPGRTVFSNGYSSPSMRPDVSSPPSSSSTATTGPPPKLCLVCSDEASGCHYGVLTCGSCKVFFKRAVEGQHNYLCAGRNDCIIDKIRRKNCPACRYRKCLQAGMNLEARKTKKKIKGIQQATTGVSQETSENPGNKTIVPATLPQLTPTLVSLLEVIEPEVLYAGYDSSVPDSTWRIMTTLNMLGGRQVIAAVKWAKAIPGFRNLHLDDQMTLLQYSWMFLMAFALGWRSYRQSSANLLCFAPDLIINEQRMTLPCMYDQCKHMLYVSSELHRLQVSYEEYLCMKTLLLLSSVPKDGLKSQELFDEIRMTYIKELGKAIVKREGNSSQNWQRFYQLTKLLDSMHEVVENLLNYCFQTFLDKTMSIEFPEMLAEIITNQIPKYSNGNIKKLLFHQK
Test: GR receptor competitor assay by fluorescence polarization (Invitrogen GR competitor assay kit, cat No. P2816)
Settings: 20 μM test compound solution, 10 μL per well plus 5 μL 4×GS1 and 5 μL 4×GR solution; recombinant human GR; 2 to 4 hours at room temperature; a ratio of 100% or more is indicated by 100%; read-out: GR Binding ratio (%)
Method: A detailed explanation of this matter will be described in the section of “Pharmacological Test” in Examples described below. In order to find the usefulness of the present compound as a pharmaceutical, a glucocorticoid receptor competitor assay was carried out by a fluorescence polarization method by using a glucocorticoid receptor competitor assay kit (manufactured by Invitrogen, cat No P2816) to study the glucocorticoid receptor binding activity of the present compound.
1. Evaluation Test for Binding Activity to Glucocorticoid Receptor (Hereinafter Referred to as “GR”)
In order to evaluate a binding activity to GR, a receptor competitor assay was carried out by a fluorescence polarization method. In the assay, a GR competitor assay kit (manufactured by Invitrogen, cat No. P2816) was used, and a procedure was carried out according to the protocol attached to the kit. Hereinafter, the specific method will be described.
(Preparation of Reagents)
GR screening buffer: A buffer containing 10 mM potassium phosphate (pH 7.4), 20 mM sodium molybdate (Na2MoO4), 0.1 mM ethylene diamine tetraacetic acid (EDTA), 5 mM dithiothreitol (DTT), 0.1 mM stabilizing peptide and 2% dimethylsulfoxide was prepared.
4×GS1 solution: Fluormone™ GS1, which is a fluorescent glucocorticoid ligand, was diluted with GR screening buffer, whereby a 4 nM solution was prepared.
4×GR solution: Recombinant human GR was diluted with GR screening buffer, whereby a 16 nM solution was prepared.
(Preparation of Test Compound Solution)
After a test compound was dissolved in dimethylsulfoxide, the resulting solution was diluted with GR screening buffer, whereby a 20 μM test compound solution was prepared.
(Test Method and Measurement Method)
1) The test compound solution was added in an amount of 10 μL into each well of a 384-well plate, and then, 4×GS1 solution and 4×GR solution were added in an amount of 5 μL into each well, respectively.
2) The plate was incubated in a dark place at room temperature for 2 to 4 hours.
3) By using a multimode plate reader, Analyst™ HT (manufactured by LJL Biosystems), fluorescence polarization of each well was measured. As the blank, a well containing GR screening buffer in place of the test compound and 4×GS1 solution was used.
4) The same procedure as that in the above 1) to 3) was carried out except that GR screening buffer was used in place of the test compound solution, and the obtained result was taken as the negative control.
5) The same procedure as that in the above 1) to 3) was carried out except that 2 mM dexamethasone was used in place of the test compound solution, and the obtained result was taken as the positive control.
(Calculation Equation of GR Binding Ratio)
A GR binding ratio (%) was calculated from the following equation. GR binding ratio (%)=100×[1−(fluorescence polarization of test compound solution−fluorescence polarization of positive control solution)/(fluorescence polarization of negative control solution−fluorescence polarization of positive control solution)] (Test Results and Discussion)

Compound	inhibition at 10 µM
COc1cc(OS(=O)(=O)C(C)C)ccc1-c1ccc2c(c1COc1cc(F)ccc1C)C(C)=CC(C)(C)N2 [Compound 4-13, 5-(5-Fluoro-2-methylphenoxymethyl)-6-(4-isopropylsulfonyloxy-2-methoxyphenyl)-2,2,4-trimethyl-1,2-dihydroquinoline]	89%
COc1ccc([N+](=O)[O-])cc1OCc1c(-c2ccc(OC(=O)c3ccccc3Cl)cc2OC)ccc2c1C(C)=CC(C)(C)N2 [Compound 1-98, 6-[4-(2-Chlorobenzoyloxy)-2-methoxyphenyl]-5-(2-methoxy-5-nitrophenoxymethyl)-2,2,4-trimethyl-1,2-dihydroquinoline]	100%
COc1cc(OC(=O)c2ccc([N+](=O)[O-])cc2)ccc1-c1ccc2c(c1COc1cc(F)ccc1C)C(C)=CC(C)(C)N2 [Compound 1-40, 5-(5-Fluoro-2-methylphenoxymethyl)-6-[2-methoxy-4-(4-nitrobenzoyloxy)phenyl]-2,2,4-trimethyl-1,2-dihydroquinoline]	100%
COc1cc(OC(=O)c2ccccc2Cl)ccc1-c1ccc2c(c1COc1cc(F)ccc1C)C(C)=CC(C)(C)N2 [Compound 1-11, 6-[4-(2-Chlorobenzoyloxy)-2-methoxyphenyl]-5-(5-fluoro-2-methylphenoxymethyl)-2,2,4-trimethyl-1,2-dihydroquinoline]	100%
C=CC(=O)Oc1ccc(-c2ccc3c(c2COc2cc(F)ccc2C)C(C)=CC(C)(C)N3)c(OC)c1 [Compound 1-17, 6-(4-Acryloyloxy-2-methoxyphenyl)-5-(5-fluoro-2-methylphenoxymethyl)-2,2,4-trimethyl-1,2-dihydroquinoline]	100%
COc1cc(OC(=O)c2cccnc2)ccc1-c1ccc2c(c1COc1cc([N+](=O)[O-])ccc1C)C(C)=CC(C)(C)N2 [Compound 1-94, 6-[2-Methoxy-4-(pyridin-3-ylcarbonyloxy)phenyl]-5-(2-methyl-5-nitrophenoxymethyl)-2,2,4-trimethyl-1,2-dihydroquinoline]	100%
COc1cc(OC(=O)c2ccc(C(C)=O)cc2)ccc1-c1ccc2c(c1COc1cc(F)ccc1C)C(C)=CC(C)(C)N2 [Compound 1-67, 6-[4-(4-Acetylbenzoyloxy)-2-methoxyphenyl]-5-(5-fluoro-2-methylphenoxymethyl)-2,2,4-trimethyl-1,2-dihydroquinoline]	100%
CCS(=O)(=O)Oc1ccc(-c2ccc3c(c2COc2cc([N+](=O)[O-])ccc2C)C(C)=CC(C)(C)N3)c(OC)c1 [Compound 4-23, 6-(4-Ethylsulfonyloxy-2-methoxyphenyl)-5-(2-methyl-5-nitrophenoxymethyl)-2,2,4-trimethyl-1,2-dihydroquinoline]	100%
COc1cc(OC(=O)c2cocn2)ccc1-c1ccc2c(c1COc1cc(F)ccc1C)C(C)=CC(C)(C)N2 [Compound 1-56, 5-(5-Fluoro-2-methylphenoxymethyl)-6-[2-methoxy-4-(oxazol-4-ylcarbonyloxy)phenyl]-2,2,4-trimethyl-1,2-dihydroquinoline]	100%
COc1cc(OC(=O)c2ccsc2)ccc1-c1ccc2c(c1COc1cc(F)ccc1C)C(C)=CC(C)(C)N2 [Compound 1-18, 5-(5-Fluoro-2-methylphenoxymethyl)-6-[2-methoxy-4-(thiophen-3-ylcarbonyloxy)phenyl]-2,2,4-trimethyl-1,2-dihydroquinoline]	100%
COc1cc(OC(=O)c2ccco2)ccc1-c1ccc2c(c1COc1cc([N+](=O)[O-])ccc1C)C(C)=CC(C)(C)N2 [Compound 1-95, 6-[4-(Furan-2-ylcarbonyloxy)-2-methoxyphenyl]-5-(2-methyl-5-nitrophenoxymethyl)-2,2,4-trimethyl-1,2-dihydroquinoline]	93%
COc1cc(OC(=O)N2CCOCC2)ccc1-c1ccc2c(c1COc1cc(F)ccc1C)C(C)=CC(C)(C)N2 [Compound 6-18, 5-(5-Fluoro-2-methylphenoxymethyl)-6-[2-methoxy-4-(morpholin-4-ylcarbonyloxy)phenyl]-2,2,4-trimethyl-1,2-dihydroquinoline]	100%
COc1cc(OC(=O)Nc2ccc(C#N)cc2)ccc1-c1ccc2c(c1COc1cc(F)ccc1C)C(C)=CC(C)(C)N2 [Compound 6-17, 6-[4-(4-Cyanophenylaminocarbonyloxy)-2-methoxyphenyl]-5-(5-fluoro-2-methylphenoxymethyl)-2,2,4-trimethyl-1,2-dihydroquinoline]	90%
COc1cc(OC(=O)Cc2ccccc2)ccc1-c1ccc2c(c1COc1cc(F)ccc1C)C(C)=CC(C)(C)N2 [Compound 1-21, 5-(5-Fluoro-2-methylphenoxymethyl)-6-(2-methoxy-4-phenylacetoxyphenyl)-2,2,4-trimethyl-1,2-dihydroquinoline]	100%
COc1cc(OC(=O)c2cccc(C(C)=O)c2)ccc1-c1ccc2c(c1COc1cc(F)ccc1C)C(C)=CC(C)(C)N2 [Compound 1-58, 6-[4-(3-Acetylbenzoyloxy)-2-methoxyphenyl]-5-(5-fluoro-2-methylphenoxymethyl)-2,2,4-trimethyl-1,2-dihydroquinoline]	100%
COc1cc(OC(=O)c2ccc(C)o2)ccc1-c1ccc2c(c1COc1cc(F)ccc1C)C(C)=CC(C)(C)N2 [Compound 1-62, 5-(5-Fluoro-2-methylphenoxymethyl)-6-[2-methoxy-4-(5-methylfuran-2-ylcarbonyloxy)phenyl]-2,2,4-trimethyl-1,2-dihydroquinoline]	100%
COc1cc(OC(=O)c2ccc([N+](=O)[O-])o2)ccc1-c1ccc2c(c1COc1cc(F)ccc1C)C(C)=CC(C)(C)N2 [Compound 1-86, 5-(5-Fluoro-2-methylphenoxymethyl)-6-[2-methoxy-4-(5-nitrofuran-2-ylcarbonyloxy)phenyl]-2,2,4-trimethyl-1,2-dihydroquinoline]	91%
COc1cc(OC(=O)c2ccccc2SC)ccc1-c1ccc2c(c1COc1cc(F)ccc1C)C(C)=CC(C)(C)N2 [Compound 1-52]	96%
COc1cc(OC(=O)C2CCN(C(=O)OC(C)(C)C)CC2)ccc1-c1ccc2c(c1COc1cc(F)ccc1C)C(C)=CC(C)(C)N2 [Compound 1-51, 6-[4-(1-t-Butoxycarbonylpiperidin-4-ylcarbonyloxy)-2-methoxyphenyl]-5-(5-fluoro-2-methylphenoxymethyl)-2,2,4-trimethyl-1,2-dihydroquinoline]	91%
COc1cc(OC(=O)CCc2ccccc2)ccc1-c1ccc2c(c1COc1cc(F)ccc1C)C(C)=CC(C)(C)N2 [Compound 1-33, 5-(5-Fluoro-2-methylphenoxymethyl)-6-[2-methoxy-4-(3-phenylpropionyloxy)phenyl]-2,2,4-trimethyl-1,2-dihydroquinoline]	89%
CCCS(=O)(=O)Oc1ccc(-c2ccc3c(c2COc2cc([N+](=O)[O-])ccc2OC)C(C)=CC(C)(C)N3)c(OC)c1 [Compound 4-18, 5-(2-Methoxy-5-nitrophenoxymethyl)-6-(2-methoxy-4-propylsulfonyloxyphenyl)-2,2,4-trimethyl-1,2-dihydroquinoline]	99%
